Calls of active or inactive are those of the source.
How the values were obtained:
[1] = target: Ribosomal protein S6 kinase alpha-3 (Homo sapiens, UniProt P51812); type: functional;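 further: measured within a kinome-wide profiling panel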
[2] = target: G protein-coupled receptor kinase 5 (Homo sapiens, UniProt P34947); assay: Navigating the Kinome. Panel member name: GPRK5; type: functional
[3] = target: Serine/threonine-protein kinase Chk1 (Homo sapiens, UniProt O14757); type: functional;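 further: measured as one member of a kinome-wide kinase profiling panel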
Sequence of Serine/threonine-protein kinase Chk1 (O14757 whole entry): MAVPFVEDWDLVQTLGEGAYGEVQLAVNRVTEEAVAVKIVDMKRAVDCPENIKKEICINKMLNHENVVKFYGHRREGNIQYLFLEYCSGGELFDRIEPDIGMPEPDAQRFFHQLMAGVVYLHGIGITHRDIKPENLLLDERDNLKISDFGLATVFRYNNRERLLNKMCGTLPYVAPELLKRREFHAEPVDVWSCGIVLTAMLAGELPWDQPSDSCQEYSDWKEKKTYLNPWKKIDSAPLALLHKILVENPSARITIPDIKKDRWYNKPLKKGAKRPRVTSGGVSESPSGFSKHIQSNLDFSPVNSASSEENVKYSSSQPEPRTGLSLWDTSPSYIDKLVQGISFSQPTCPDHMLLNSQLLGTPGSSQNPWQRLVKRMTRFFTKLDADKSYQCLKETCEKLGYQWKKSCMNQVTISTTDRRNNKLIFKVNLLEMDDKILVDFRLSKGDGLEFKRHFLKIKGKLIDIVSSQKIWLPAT

[4] = target: Proto-oncogene tyrosine-protein kinase receptor Ret (Homo sapiens, UniProt P07949); type: functional;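 further: measured within a kinome-wide profiling panel, RET as the panel member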
Sequence of Proto-oncogene tyrosine-protein kinase receptor Ret (P07949 whole entry): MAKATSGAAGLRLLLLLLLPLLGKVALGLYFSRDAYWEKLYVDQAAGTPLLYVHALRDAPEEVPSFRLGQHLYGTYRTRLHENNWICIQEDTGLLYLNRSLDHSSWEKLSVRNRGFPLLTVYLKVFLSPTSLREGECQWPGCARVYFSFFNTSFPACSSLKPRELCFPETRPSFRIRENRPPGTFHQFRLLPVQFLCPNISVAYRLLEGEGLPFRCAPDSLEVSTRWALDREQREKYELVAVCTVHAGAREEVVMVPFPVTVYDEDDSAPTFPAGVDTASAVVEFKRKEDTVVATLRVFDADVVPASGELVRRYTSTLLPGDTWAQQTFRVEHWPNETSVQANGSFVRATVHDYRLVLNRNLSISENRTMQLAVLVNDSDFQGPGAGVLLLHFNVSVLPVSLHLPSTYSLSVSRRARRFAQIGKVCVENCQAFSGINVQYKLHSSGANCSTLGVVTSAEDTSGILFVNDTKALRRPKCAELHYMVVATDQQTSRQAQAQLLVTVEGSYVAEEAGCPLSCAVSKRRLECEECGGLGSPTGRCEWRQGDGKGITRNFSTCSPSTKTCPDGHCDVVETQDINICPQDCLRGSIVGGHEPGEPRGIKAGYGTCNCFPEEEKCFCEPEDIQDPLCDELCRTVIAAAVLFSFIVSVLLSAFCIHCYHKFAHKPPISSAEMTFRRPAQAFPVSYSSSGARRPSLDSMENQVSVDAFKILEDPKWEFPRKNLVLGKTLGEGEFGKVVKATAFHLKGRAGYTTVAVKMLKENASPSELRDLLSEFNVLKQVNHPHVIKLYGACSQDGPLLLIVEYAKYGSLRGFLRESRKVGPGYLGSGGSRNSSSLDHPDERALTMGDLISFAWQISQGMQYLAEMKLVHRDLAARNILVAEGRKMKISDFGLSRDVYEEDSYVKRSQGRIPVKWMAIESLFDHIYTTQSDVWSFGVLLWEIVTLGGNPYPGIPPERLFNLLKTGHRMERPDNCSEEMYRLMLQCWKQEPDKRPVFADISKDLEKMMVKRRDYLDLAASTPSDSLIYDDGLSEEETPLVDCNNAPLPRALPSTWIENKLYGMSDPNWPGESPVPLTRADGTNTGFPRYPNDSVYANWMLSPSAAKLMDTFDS

[5] = target: Protein kinase C theta type (Homo sapiens, UniProt Q04759); assay: Navigating the Kinome. Panel member name: PRKCQ; type: functional
Sequence of Protein kinase C theta type (Q04759 whole entry): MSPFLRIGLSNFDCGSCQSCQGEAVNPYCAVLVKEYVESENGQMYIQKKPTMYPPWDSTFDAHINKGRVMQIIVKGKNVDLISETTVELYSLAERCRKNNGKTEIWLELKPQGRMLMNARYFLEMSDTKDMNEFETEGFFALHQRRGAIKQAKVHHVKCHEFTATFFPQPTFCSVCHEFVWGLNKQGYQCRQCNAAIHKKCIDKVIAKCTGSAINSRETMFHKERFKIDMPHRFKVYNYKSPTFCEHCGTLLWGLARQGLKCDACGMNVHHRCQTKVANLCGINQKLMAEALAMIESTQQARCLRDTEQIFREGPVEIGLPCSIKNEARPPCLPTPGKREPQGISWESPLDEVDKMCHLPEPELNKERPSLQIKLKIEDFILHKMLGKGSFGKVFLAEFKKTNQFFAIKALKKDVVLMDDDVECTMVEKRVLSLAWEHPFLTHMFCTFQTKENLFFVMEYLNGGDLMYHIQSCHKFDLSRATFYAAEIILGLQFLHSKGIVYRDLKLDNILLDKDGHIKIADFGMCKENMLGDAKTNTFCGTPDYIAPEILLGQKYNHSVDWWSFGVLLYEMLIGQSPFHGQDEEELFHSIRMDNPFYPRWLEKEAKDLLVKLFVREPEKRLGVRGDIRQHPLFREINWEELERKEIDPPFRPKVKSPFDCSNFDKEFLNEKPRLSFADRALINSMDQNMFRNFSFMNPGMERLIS

[6] = target: Platelet-derived growth factor receptor beta (Homo sapiens, UniProt P09619); type: functional;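 further: value comes from a kinome panel, with PDGFRB tested as one panel member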
Sequence of Platelet-derived growth factor receptor beta (P09619 whole entry): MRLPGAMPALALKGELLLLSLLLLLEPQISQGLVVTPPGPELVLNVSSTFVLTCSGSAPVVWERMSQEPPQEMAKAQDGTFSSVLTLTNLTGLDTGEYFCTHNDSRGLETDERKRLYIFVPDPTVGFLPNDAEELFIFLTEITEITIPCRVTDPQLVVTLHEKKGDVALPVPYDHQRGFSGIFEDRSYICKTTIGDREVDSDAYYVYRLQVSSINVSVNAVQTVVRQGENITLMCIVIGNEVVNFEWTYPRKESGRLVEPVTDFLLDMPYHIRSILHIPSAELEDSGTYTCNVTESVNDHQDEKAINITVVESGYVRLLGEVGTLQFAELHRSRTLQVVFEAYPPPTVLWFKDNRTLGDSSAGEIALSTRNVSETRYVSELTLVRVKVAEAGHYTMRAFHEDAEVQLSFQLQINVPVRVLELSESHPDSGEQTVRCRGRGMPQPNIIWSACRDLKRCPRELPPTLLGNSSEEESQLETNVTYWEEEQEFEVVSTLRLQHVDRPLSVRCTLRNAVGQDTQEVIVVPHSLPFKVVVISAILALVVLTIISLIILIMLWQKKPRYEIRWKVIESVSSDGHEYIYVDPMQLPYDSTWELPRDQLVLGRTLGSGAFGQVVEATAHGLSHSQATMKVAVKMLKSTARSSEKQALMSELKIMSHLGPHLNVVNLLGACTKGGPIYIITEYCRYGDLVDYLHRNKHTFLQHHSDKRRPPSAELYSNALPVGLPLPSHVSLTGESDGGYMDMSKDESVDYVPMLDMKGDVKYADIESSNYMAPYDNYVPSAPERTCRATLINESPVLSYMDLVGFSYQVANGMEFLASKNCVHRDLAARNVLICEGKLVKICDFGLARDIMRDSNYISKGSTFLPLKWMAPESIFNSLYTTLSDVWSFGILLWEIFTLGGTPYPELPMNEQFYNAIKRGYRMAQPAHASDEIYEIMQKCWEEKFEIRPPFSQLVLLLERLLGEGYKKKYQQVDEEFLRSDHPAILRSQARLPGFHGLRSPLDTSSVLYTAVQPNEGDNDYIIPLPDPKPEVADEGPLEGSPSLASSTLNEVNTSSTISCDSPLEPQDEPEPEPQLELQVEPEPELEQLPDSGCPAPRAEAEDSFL

Genome polyprotein = Genome polyprotein (dengue virus type 2, UniProt P29990); assay: Dengue-2 NS5 methyltransferase inhibitors, primary screen, biochemical, confirmation dose response (AID 588689); type: functional
Streptococcus = assay: Group A Streptococcus viability loss, dose response, counter-screen for streptokinase expression inhibitor project, luminescence, BacTiterGlo (AID 1915); type: functional, organism-based;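 further: potency for reduction of bacterial viability or growth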
Nonstructural protein 1 = Nonstructural protein 1 (Influenza A virus, UniProt Q194T2); type: functional, Influenza A virus (A/California/07/2009(H1N1))
Sequence of Nonstructural protein 1 (Q194T2 whole entry, the tested form may be a part): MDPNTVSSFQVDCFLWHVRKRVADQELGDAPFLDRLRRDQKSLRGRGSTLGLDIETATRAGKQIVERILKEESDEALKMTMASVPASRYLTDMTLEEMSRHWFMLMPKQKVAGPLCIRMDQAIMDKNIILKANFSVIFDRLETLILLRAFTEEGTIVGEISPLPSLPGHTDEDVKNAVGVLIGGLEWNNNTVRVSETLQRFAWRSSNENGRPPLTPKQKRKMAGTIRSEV

[7] = CEM21 lymphoblast cell cytotoxicity, dose response, cytotoxicity control for viral fusion inhibitor project, CellTiter-Glo luminescence, cherry-picked (AID 652042); type: functional, cell-based;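 further: potency for signal decrease meaning cytotoxicity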
Vero = Vero cell cytotoxicity, cytotoxicity control for flavivirus capping enzyme inhibitors (AID 588742); type: functional; details: Chlorocebus sabaeus
[8] = off-target signal loss in HeLa-CEM21 co-culture – HeLa F-luc CTL cells, cherry-picked, counter-screen for HIV-1 Env fusion inhibitor project, dose response (AID 652040); type: functional, cell-based;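 further: potency for signal decrease marking cytotoxic or nonspecific inhibition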
[9] = system: Streptococcus sp. 'group A'; assay: growth inhibition of control SK(-) GAS strain, dose response, counter-screen for streptokinase expression inhibitor project, luminescence, kanamycin, BacTiterGlo, confirmation (AID 1900); type: functional, organism-based
INS1 = assay: beta cell apoptosis inhibitors, cytokine rescue, dose response, luminescence, retest (AID 449756); type: functional, cell-based; details: Rattus norvegicus;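 further: cell death triggered by IL-1 beta plus TNF-alpha plus IFN-gamma mixture; protective hits raise ATP signal compared with cytokine alone wells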
[10] = inhibitors of clade B AD8 Env fusion, dose response, cell-based, cherry-pick (AID 652062); type: functional;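 further: luciferase signal from cell-cell fusion driven by HIV-1 clade B AD8 Env; potency is for inhibitors of fusion seen as a drop in luminescence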
BJ [11] = assay: cytotoxicity toward BJ-TERT fibroblasts, dose response, cell-based, RAS-independent, luminescence (AID 1933); type: functional; details: Homo sapiens
BJ [12] = assay: cytotoxicity toward BJ-TERT-LT-ST fibroblasts, dose response, cell-based, RAS-independent, luminescence (AID 1935); type: functional; details: Homo sapiens;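 further: BJ fibroblasts immortalized with TERT plus LT and ST oncogenes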
P388 = assay: cells; type: functional; details: Mus musculus;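 further: compound exposure lasted 48 hours before growth was measured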
[13] = target: T1, Histone-lysine N-methyltransferase NSD2 (Homo sapiens, UniProt O96028); type: biochemical
T1 sequence (O96028 whole entry): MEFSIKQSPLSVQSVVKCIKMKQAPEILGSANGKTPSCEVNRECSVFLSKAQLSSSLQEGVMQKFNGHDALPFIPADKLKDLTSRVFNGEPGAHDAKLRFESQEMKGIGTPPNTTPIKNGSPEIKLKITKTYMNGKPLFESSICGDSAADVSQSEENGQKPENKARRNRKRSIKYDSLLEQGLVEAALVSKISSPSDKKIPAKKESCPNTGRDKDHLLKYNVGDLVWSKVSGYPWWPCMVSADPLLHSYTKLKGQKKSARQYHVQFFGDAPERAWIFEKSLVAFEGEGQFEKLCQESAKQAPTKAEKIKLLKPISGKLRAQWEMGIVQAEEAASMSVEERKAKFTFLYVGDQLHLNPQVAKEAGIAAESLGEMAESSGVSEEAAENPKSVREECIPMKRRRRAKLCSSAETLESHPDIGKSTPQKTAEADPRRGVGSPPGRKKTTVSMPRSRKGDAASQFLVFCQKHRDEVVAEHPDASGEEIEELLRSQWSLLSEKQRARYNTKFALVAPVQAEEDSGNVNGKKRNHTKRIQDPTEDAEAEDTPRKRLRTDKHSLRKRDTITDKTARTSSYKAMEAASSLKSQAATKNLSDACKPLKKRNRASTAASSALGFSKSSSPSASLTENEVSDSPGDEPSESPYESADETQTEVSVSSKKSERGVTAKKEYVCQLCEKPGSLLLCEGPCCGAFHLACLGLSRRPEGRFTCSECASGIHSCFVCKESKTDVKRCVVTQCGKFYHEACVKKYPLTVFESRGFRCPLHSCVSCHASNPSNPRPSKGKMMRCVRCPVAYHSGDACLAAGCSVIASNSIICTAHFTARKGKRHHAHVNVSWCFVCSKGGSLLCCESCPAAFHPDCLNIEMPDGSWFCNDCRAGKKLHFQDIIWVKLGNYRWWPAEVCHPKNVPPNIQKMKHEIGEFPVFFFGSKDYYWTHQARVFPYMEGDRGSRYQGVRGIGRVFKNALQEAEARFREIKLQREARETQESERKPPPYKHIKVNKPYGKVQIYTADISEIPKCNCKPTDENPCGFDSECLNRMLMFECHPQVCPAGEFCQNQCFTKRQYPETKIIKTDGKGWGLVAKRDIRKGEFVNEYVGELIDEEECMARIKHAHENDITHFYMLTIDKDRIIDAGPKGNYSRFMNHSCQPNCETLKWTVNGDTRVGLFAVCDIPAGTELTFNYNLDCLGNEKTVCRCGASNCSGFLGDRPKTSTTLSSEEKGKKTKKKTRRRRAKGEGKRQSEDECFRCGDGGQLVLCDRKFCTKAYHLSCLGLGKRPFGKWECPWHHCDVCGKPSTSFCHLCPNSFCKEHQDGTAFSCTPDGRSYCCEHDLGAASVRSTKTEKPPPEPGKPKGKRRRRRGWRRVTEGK

Sequence of G protein-coupled receptor kinase 5 (P34947 whole entry): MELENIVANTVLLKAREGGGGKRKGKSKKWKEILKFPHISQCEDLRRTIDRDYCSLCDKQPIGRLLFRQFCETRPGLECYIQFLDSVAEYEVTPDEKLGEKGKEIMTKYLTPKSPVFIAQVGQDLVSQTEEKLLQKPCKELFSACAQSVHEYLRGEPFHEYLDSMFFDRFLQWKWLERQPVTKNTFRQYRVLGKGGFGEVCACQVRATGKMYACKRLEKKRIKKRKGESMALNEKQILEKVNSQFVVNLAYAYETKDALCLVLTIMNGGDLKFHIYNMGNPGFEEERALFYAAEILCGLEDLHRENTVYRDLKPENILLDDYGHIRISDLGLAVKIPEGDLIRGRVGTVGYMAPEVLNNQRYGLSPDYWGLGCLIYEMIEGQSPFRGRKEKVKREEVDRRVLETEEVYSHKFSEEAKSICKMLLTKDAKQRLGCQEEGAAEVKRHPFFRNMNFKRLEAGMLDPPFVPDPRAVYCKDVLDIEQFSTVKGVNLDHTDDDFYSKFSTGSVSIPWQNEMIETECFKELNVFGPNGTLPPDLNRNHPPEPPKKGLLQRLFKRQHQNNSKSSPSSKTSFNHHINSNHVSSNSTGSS
Sequence of Ribosomal protein S6 kinase alpha-3 (P51812 whole entry): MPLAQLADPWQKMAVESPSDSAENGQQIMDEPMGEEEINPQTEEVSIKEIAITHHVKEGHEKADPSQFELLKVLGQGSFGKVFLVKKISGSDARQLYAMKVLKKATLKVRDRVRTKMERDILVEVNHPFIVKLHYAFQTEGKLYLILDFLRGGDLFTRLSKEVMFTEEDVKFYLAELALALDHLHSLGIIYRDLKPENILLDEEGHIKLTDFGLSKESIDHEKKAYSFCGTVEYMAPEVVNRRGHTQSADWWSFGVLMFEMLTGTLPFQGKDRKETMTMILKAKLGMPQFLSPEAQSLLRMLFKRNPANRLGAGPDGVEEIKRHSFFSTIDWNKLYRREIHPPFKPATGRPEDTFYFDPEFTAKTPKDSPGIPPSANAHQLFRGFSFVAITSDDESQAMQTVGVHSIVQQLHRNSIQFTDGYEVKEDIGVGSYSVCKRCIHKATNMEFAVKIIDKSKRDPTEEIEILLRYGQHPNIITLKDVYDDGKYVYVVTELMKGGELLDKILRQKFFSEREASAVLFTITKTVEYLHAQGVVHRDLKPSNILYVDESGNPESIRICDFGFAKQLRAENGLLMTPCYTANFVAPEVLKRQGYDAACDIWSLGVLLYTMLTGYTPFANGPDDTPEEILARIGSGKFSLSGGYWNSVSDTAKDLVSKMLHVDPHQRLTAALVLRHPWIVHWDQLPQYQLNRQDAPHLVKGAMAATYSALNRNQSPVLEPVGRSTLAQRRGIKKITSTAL

O=C(Nc1cccc(C(F)(F)F)n1)Nc1ccnc2cc(OC(F)F)ccc12
Ki [1]: > 3.98 µM (inactive) | Ki [2]: > 3.98 µM (inactive) | Ki [3]: > 3.16 µM (inactive) | Ki [4]: > 3.16 µM (inactive) | Ki [5]: > 2.51 µM (inactive) | Ki [6]: > 2 µM (inactive)

Cc1cc(C)c(S(=O)(=O)/N=C2\C=C(Nc3ccc(C(=O)O)cc3)C(=O)c3ccccc32)c(C)c1
IC50 (Genome polyprotein): 21.2 µM (active) | EC50 (Streptococcus): 2.6 µM (active) | IC50 (Nonstructural protein 1): 20.8 µM (active) | AC50 [7]: 9.3 µM (active) | CC50 (Vero): 9.71 µM (active) | AC50 [8]: 17.2 µM (active) | EC50 [9]: 0.561 µM (active) | AC50 (INS1): 2.51 µM (active) | AC50 [10]: 9.55 µM (active)

CCC1CC(NS(=O)(=O)C2CC2)CC1c1ncc2cnc3[nH]ccc3n12 (stereo not given)
Ki [5]: 0.2 µM (active)

COC(=O)c1nc(-c2ccc3c(n2)C(=O)C(=N)C(OC)=C3O)c(N)c(-c2ccc(OC)c(OC)c2O)c1C
EC50 (BJ [11]): 5.91 µM (active) | EC50 (BJ [12]): 10.3 µM (active) | GI50 (P388): 1.49 µM (inactive) | IC50 (Nonstructural protein 1): > 100 µM (active) | CC50 (Vero): 0.18 µM (active) | AC50 [13]: > 20 µM (inactive) | AC50 (INS1): 1.56 µM (active)

O=C(Cc1ccccc1)NC1(O)C(=O)c2ccccc2C1=O
AC50 [13]: 7.11 µM (active)

O=c1[nH]c2cc(Br)cnc2[nH]1
Ki [1]: 31.6 µM (active) | Ki [4]: 31.6 µM (active) | Ki [5]: 31.6 µM (active)

O=C(Nc1cccc(C(F)(F)F)n1)Nc1ccnc2cc(Cl)ccc12
Ki [2]: > 3.98 µM (inactive) | Ki [5]: > 2.51 µM (inactive) | Ki [6]: > 2 µM (inactive)
